Like-named read-outs stand apart in the source and are kept apart here.
How the values were obtained:
histamine H1 [1] = molecular target: T1, histamine H1 (Cavia porcellus, UniProt P31389); assay: Drugs vs. histamine at 1 × 10^-6 M in guinea pig terminal ileum, comparison with -383 analogues; format: cell-based; set-up: A section of terminal ileum was removed and suspended in aerated 37° C; Tyrodes solution; from tissue; host or cells: terminal ileum of male Hartley guinea pigs
Excerpt: Tyrodes solution. […] Tissues were washed several times before repeating the procedure for the next concentration. A different set of 4 tissues was used for each drug.

[2] = Conditioned avoidance (shelf-jump), Herman et al.; format: in vivo; conditions: 40 mg/kg
[3] = test system: histamine-induced wheal formation in guinea pig skin; assay: Histamine-induced wheal formation in guinea pig skin; format: in vivo
[4] = Confinement motor activity, Tedeschi et al.; format: in vivo; conditions: 5 and 10 mg/kg i.p.
[5] = Modified Geller-Seifter experimentally-induced conflict test; conditions: in vivo
[6] = test system: histamine-induced deaths in guinea pigs; assay: Inhibition of histamine-induced deaths in guinea pigs; format: in vivo, guinea pig
Procedure: The compound exemplified herein, after a one hour pretreatment period, inhibited histamine-induced deaths in guinea pigs over the range of 1-5 mg/kg, with 100 percent effectiveness at the latter dose. At 18 hours post drug treatment the test compound retained 40 percent effectiveness at 10 mg/kg.

histamine H1 [7] = molecular target: T1, histamine H1; assay: Histamine-induced contraction of isolated guinea pig ileum, single drug concentration; format: cell-based; set-up: A section of terminal ileum was removed and suspended in aerated 37° C; Tyrodes solution; from tissue; host or cells: terminal ileum of male Hartley guinea pigs; conditions: histamine 1×10^-7 M; test drug 1×10^-6 M
Procedure: Fresh segments of terminal ileum immediately proximal to Peyer's patch, obtained from male Buckshire guinea pigs, were suspended in 37° C. Tyrode's solution in a tissue bath and aerated. The tissue segments were placed under one gram tension and allowed to equilibrate for one hour. Histamine was added to each tissue bath to a final concentration of 1×10^-7 M. The response was noted as grams tension. Test drug was added, in the presence of histamine, to each bath to a final concentration of 1×10^-6 M. The change in grams tension was noted and the percent reduction in grams tension calculated.

[8] = test system: histamine-induced paw edema formation; assay: Histamine-induced paw edema formation; conditions: in vivo
[9] = test system: histamine-induced changes in bronchopulmonary parameters; assay: Reversal of histamine-induced changes in bronchopulmonary parameters in the anesthetized guinea pig; format: in vivo
[10] = test system: limbic D2 dopamine receptor; assay: Limbic D2 dopamine receptor binding (Fields et al.); conditions: at 1 μM
histamine H1 [11] = molecular target: T1, histamine H1; assay: cell-based
Procedure: Subsequently, additional characterization of the compound herein exemplified was carried out in which complete histamine dose response curves were constructed first in the absence of test drug and then repeated in the presence of test drug at a specified concentration. A single experiment of this type allowed calculation of a pKB value from the rightward shift induced by the drug in the histaminic dose response curve, while three such experiments (at three different drug concentrations) allowed calculation of a pA2 value.

[12] = guinea pig ileum, histamine 1 × 10^-6 M, calculated from the table data, read-out: IC50 (inhibitory concentration50)

T1 sequence (P31389 whole entry): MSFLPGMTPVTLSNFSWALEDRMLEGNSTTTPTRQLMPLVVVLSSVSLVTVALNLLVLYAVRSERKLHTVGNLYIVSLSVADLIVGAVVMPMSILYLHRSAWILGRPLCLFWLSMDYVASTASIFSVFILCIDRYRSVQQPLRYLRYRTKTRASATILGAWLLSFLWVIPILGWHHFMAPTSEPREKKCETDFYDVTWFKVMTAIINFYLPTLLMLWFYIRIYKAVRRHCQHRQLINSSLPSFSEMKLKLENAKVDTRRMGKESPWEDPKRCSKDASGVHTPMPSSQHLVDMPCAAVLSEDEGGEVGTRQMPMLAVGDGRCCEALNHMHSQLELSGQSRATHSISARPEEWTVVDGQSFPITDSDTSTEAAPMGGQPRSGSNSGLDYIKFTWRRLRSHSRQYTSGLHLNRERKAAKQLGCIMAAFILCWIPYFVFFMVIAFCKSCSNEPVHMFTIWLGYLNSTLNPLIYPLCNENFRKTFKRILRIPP

Compound | IC50 (histamine H1 [1]; [12]) [nM] | conditioned avoidance (shelf-jump) activity [2] | effectiveness against wheal formation ([3]; 1.7 mg/kg, 18 hour pretreatment) | suppression of wheal formation ([3]; highest dose (2.1 mg/kg), one hour pretreatment) | sedative effect in confinement motor activity [4] | effect in modified Geller-Seifter conflict test [5] | effectiveness in inhibition of histamine-induced deaths ([6]; 5 mg/kg, one hour pretreatment) [%] | effectiveness in inhibition of histamine-induced deaths ([6]; 10 mg/kg, 18 hours post drug treatment) [%] | antagonist action against the histamine-induced contractile response in the isolated guinea pig ileum (histamine H1 [7]) | IC50 (histamine H1 [1]) [nM] | potency relative to the -383 dichloro compound (histamine H1 [1]; ratio of IC50's) | potency relative to the -383 monochloro compound (histamine H1 [1]; ratio of IC50's) [times] | inhibition of histamine-induced paw edema formation [8] | reversal of histamine-induced changes in bronchopulmonary parameters [9] | inhibition of limbic D2 dopamine receptor binding [10] [%] | Kb (histamine H1 [11]) [nM] | type of antagonism (shift of histamine dose response curve) (histamine H1 [11]; isolated guinea pig ileum) | potency relative to terfenadine (histamine H1 [11]; vs terfenadine)
Cn1c(=O)c2c(ncn2CCCN2CCN(C(c3ccccc3)c3ccc(Cl)cc3)CC2)n(C)c1=O (stereo not shown) [-383 Monochloro compound, 7-[3-[4-p-chlorobenzhydrylpiperazinyl-(1)]-n-propyl]-theophylline, reference compound] | 370 | – | – | – | – | – | – | – | – | – | – | – | – | – | – | – | – | –
Cn1c(=O)c2c(ncn2CCCCN2CCN(C(c3ccc(Cl)cc3)c3ccc(Cl)cc3)CC2)n(C)c1=O [-383 Dichloro compound, 7-[4-[4-(4',4"-dichlorodiphenylmethyl)piperazinyl-(1)]-n-butyl]theophylline, reference compound] | 790 | – | – | – | – | – | – | – | – | – | – | – | – | – | – | – | – | –
Cn1c(=O)c2c(ncn2CCCN2CCN(C(c3ccc(F)cc3)c3ccc(F)cc3)CC2)n(C)c1=O [Difluoro compound, 7-[3-[4-bis(4-fluorophenyl)methyl]-1-piperazinyl]propyl-3,7-dihydro-1,3-dimethyl-1H-purine-2,6-dione] | – | inactive | retained maximal effectiveness | Maximum suppression of wheal formation | no sedative effect | mild stimulation | 100 | 40 | potent, competitive antagonist action | 38 | about 21 times | 10 | inhibition of histamine-induced paw edema formation | reversal of histamine-induced changes in bronchopulmonary parameters | 43 | 6.31 | parallel rightward shifts with no decrease in the maximum response | about five times as potent as terfenadine

From patent US4710572A, “Histamine H1 antagonists” (American Home Products Corporation, priority 1986, dated 1987)
